Test: xn = mol fraction of the nth substance listed
Conditions: 101.32 kPa, Liquid, Vibrating tube method

CCOC(C)=O [ethyl acetate] + CCCCCC
Conditions | mass density [kg/m3]
291.15 K, x1 = 0.0165 | 663.7
291.15 K, x1 = 0.0655 | 671.62
291.15 K, x1 = 0.1077 | 678.72
291.15 K, x1 = 0.1823 | 692.02
291.15 K, x1 = 0.1962 | 694.54
291.15 K, x1 = 0.2716 | 709.09
291.15 K, x1 = 0.3518 | 725.37
291.15 K, x1 = 0.4166 | 739.37
291.15 K, x1 = 0.5519 | 770.91
291.15 K, x1 = 0.6225 | 788.69
291.15 K, x1 = 0.6795 | 803.74
291.15 K, x1 = 0.7429 | 821.35
291.15 K, x1 = 0.8048 | 839.41
291.15 K, x1 = 0.898 | 868.3
291.15 K, x1 = 0.9604 | 888.98
291.15 K, x1 = 0.9833 | 896.93
291.15 K, x1 = 1 | 902.88
298.15 K, x1 = 0.0704 | 666.2
298.15 K, x1 = 0.127 | 675.7
298.15 K, x1 = 0.193 | 687.4
298.15 K, x1 = 0.2383 | 695.9
298.15 K, x1 = 0.2909 | 706.1
298.15 K, x1 = 0.3466 | 717.4
298.15 K, x1 = 0.444 | 738.3
298.15 K, x1 = 0.4935 | 749.5
298.15 K, x1 = 0.5355 | 759.4
298.15 K, x1 = 0.5869 | 772
298.15 K, x1 = 0.6255 | 781.8
298.15 K, x1 = 0.7012 | 801.9
298.15 K, x1 = 0.7532 | 816.4
298.15 K, x1 = 0.8292 | 838.8
298.15 K, x1 = 0.8612 | 848.7
298.15 K, x1 = 0.9233 | 868.5
298.15 K, x1 = 0.9469 | 876.3
298.15 K, x1 = 1 | 894.4
318.15 K, x1 = 0.0336 | 641.5
318.15 K, x1 = 0.0764 | 648.1
318.15 K, x1 = 0.1448 | 659.3
318.15 K, x1 = 0.2606 | 679.9
318.15 K, x1 = 0.276 | 682.8
318.15 K, x1 = 0.3316 | 693.5
318.15 K, x1 = 0.3976 | 707
318.15 K, x1 = 0.4495 | 718.1
318.15 K, x1 = 0.5054 | 730.6
318.15 K, x1 = 0.5551 | 742.2
318.15 K, x1 = 0.6085 | 755.1
318.15 K, x1 = 0.7048 | 779.9
318.15 K, x1 = 0.7523 | 792.9
318.15 K, x1 = 0.7984 | 806
318.15 K, x1 = 0.8419 | 818.8
318.15 K, x1 = 0.8854 | 832.2
318.15 K, x1 = 0.9305 | 846.4
318.15 K, x1 = 1 | 869.6
328.15 K, x1 = 0.0433 | 633.2
328.15 K, x1 = 0.0847 | 639.6
328.15 K, x1 = 0.1691 | 653.4
328.15 K, x1 = 0.2349 | 664.88
328.15 K, x1 = 0.307 | 678
328.15 K, x1 = 0.3708 | 690.6
328.15 K, x1 = 0.4318 | 703.25
328.15 K, x1 = 0.4918 | 716.3
